Key:
HepG2.2.15 cells = experiment: Cytotoxicity determination in HepG2.2.15 cells (CCK-8); type: cell-based; conditions: HepG2.2.15 cells, 5,000 cells/well, 6 days of compound treatment, CCK-8 absorbance 450 nm, highest concentration 100 uM
Method: (§1) • HepG2.2.15 (the HepG2.2.15 cell line can be produced by transfection of the HepG2 cell line as described in Sells, Chen, and Acs 1987 (Proc. Natl. Acad. Sci. USA 84: 1005-1009), and the HepG2 cell line is available from ATCC® under number HB-8065™)
(§2) Seed the cell HepG2.2.15 cells into 96-well plate in 2% FBS culture medium at the density of 40,000 cells/well and 5,000 cells/well for HBV inhibitory activity and cytotoxicity determination, respectively. After seeding, incubate the cell plates at 37° C., 5% CO2 overnight. The next day, medium containing compounds is added to the cell to treat the cells for 6 days with medium refreshed once in the middle of the treatment. 8 dose points with 3 folds dilution of each compound were adopted and the highest concentration of the compounds is 10 uM and 100 uM for HBV inhibitory activity and cytotoxicity determination, respectively.
After 6 days of compounds treatment, add 20 μl CCK-8 reagents to each well of cytotoxicity assay plates, incubate the plate at 37° C., 5% CO2 for 2.5 h and measure the absorbance at 450 nm wavelength, at the same time read the absorbance at 630 nm wavelength as reference.
(§3) EC50 and CC50 values are calculated by the GRAPHPAD PRISM software.

HBV = HBV inhibitory activity in HepG2.2.15 cells (HBV DNA in culture medium by q-PCR); type: cell-based; conditions: HepG2.2.15 cells, 40,000 cells/well, 6 days of compound treatment, HBV DNA in culture medium by q-PCR, highest concentration 10 uM; read-out: EC50
Method: as §1, §2
The HBV DAN change in the cell culture medium induced by the compounds is measured by q-PCR method. Briefly, the HBV DNA in the culture medium is extracted using QIAamp 96 DNA Blood Kit according to the manual and then quantified by q-PCR using the primers and probe in the table below.
as §3

Compound | CC50 (HepG2.2.15 cells) [µM] | EC50 (HBV) [µM]
CCOC(=O)C1=C(C2CCc3nn(CCC(=O)O)cc3C2)NC(c2nccs2)=NC1c1ccc(F)cc1Br (single isomer, unassigned) [Compound 39c, 3-(5-(6-(2-Bromo-4-fluorophenyl)-5-(ethoxycarbonyl)-2-(thiazol-2-yl)-3,6-dihydropyrimidin-4-yl)-4,5,6,7-tetrahydro-2H-indazol-2-yl)propanoic acid] | 11.9 | 0.0145
CCOC(=O)C1=C(C2CCc3nn(CCC(=O)O)cc3C2)NC(c2nccs2)=NC1c1cccc(F)c1Cl (single isomer, unassigned) [Compound 40c, 3-(5-(6-(2-Chloro-3-fluorophenyl)-5-(ethoxycarbonyl)-2-(thiazol-2-yl)-3,6-dihydropyrimidin-4-yl)-4,5,6,7-tetrahydro-2H-indazol-2-yl)propanoic acid] | 12.5 | 0.0331
CCOC(=O)C1=C(C2CCc3nn(CCC(=O)O)cc3C2)NC(c2nccs2)=NC1c1cccc(F)c1C (single isomer, unassigned) [Compound 41b, 3-(5-(5-(Ethoxycarbonyl)-6-(3-fluoro-2-methylphenyl)-2-(thiazol-2-yl)-3,6-dihydropyrimidin-4-yl)-4,5,6,7-tetrahydro-2H-indazol-2-yl)propanoic acid] | 6.6 | 0.292
CCOC(=O)C1=C(C2CCc3nn(CCC(=O)O)cc3C2)NC(c2nccs2)=NC1c1cccc(F)c1C (single isomer, unassigned) [Compound 41c, 3-(5-(5-(Ethoxycarbonyl)-6-(3-fluoro-2-methylphenyl)-2-(thiazol-2-yl)-3,6-dihydropyrimidin-4-yl)-4,5,6,7-tetrahydro-2H-indazol-2-yl)propanoic acid] | 14.4 | 0.0304
CCOC(=O)C1=C(C2CCc3nn(CCC(=O)O)cc3C2)NC(c2nccs2)=NC1c1cccc(F)c1Br (single isomer, unassigned) [Compound 42d, 3-(5-(6-(2-bromo-3-fluorophenyl)-5-(ethoxycarbonyl)-2-(thiazol-2-yl)-3,6-dihydropyrimidin-4-yl)-4,5,6,7-tetrahydro-2H-indazol-2-yl)propanoic acid] | 12.7 | 0.0242
CCOC(=O)C1=C(C2CCc3nn(CCC(=O)O)cc3C2)NC(c2ncc(F)cc2F)=NC1c1ccc(F)c(F)c1Cl (single isomer, unassigned) [Compound 43c, 3-(5-(6-(2-Chloro-3,4-difluorophenyl)-2-(3,5-difluoropyridin-2-yl)-5-(ethoxycarbonyl)-3,6-dihydropyrimidin-4-yl)-4,5,6,7-tetrahydro-2H-indazol-2-yl)propanoic acid] | 29.9 | 0.0059
COC(=O)C1=C(C2CCc3nn(CCC(=O)O)cc3C2)NC(c2nccs2)=NC1c1cccc(F)c1Cl (single isomer, unassigned) [Compound 44c, 3-(5-(6-(2-Chloro-3-fluorophenyl)-5-(methoxycarbonyl)-2-(thiazol-2-yl)-3,6-dihydropyrimidin-4-yl)-4,5,6,7-tetrahydro-2H-indazol-2-yl)propanoic acid] | 36.7 | 0.0329
COC(=O)C1=C(C2CCc3nn(CCC(=O)O)cc3C2)NC(c2nccs2)=NC1c1cccc(F)c1Br (single isomer, unassigned) [Compound 45c, 3-(5-(6-(2-Bromo-3-fluorophenyl)-5-(methoxycarbonyl)-2-(thiazol-2-yl)-3,6-dihydropyrimidin-4-yl)-4,5,6,7-tetrahydro-2H-indazol-2-yl)propanoic acid] | 32.2 | 0.0473
COC(=O)C1=C(C2CCc3nn(CCC(=O)O)cc3C2)NC(c2nccs2)=NC1c1ccc(F)c(F)c1Br (single isomer, unassigned) [Compound 46d, 3-(5-(6-(2-Bromo-3,4-difluorophenyl)-5-(methoxycarbonyl)-2-(thiazol-2-yl)-3,6-dihydropyrimidin-4-yl)-4,5,6,7-tetrahydro-2H-indazol-2-yl)propanoic acid] | 10.7 | 0.0136
COC(=O)C1=C(C2CCc3nn(CCC(=O)O)cc3C2)NC(c2nccs2)=NC1c1ccc(F)cc1Cl (single isomer, unassigned) [Compound 47b, 3-(5-(6-(2-Chloro-4-fluorophenyl)-5-(methoxycarbonyl)-2-(thiazol-2-yl)-3,6-dihydropyrimidin-4-yl)-4,5,6,7-tetrahydro-2H-indazol-2-yl)propanoic acid] | 37.7 | 0.47
COC(=O)C1=C(C2CCc3nn(CCC(=O)O)cc3C2)NC(c2nccs2)=NC1c1ccc(F)cc1Cl (single isomer, unassigned) [Compound 47c, 3-(5-(6-(2-Chloro-4-fluorophenyl)-5-(methoxycarbonyl)-2-(thiazol-2-yl)-3,6-dihydropyrimidin-4-yl)-4,5,6,7-tetrahydro-2H-indazol-2-yl)propanoic acid] | > 100 | 0.147
COC(=O)C1=C(C2CCc3nn(CCC(=O)O)cc3C2)NC(c2nccs2)=NC1c1ccc(F)cc1Br (single isomer, unassigned) [Compound 48b, 3-(5-(6-(2-Bromo-4-fluorophenyl)-5-(methoxycarbonyl)-2-(thiazol-2-yl)-3,6-dihydropyrimidin-4-yl)-4,5,6,7-tetrahydro-2H-indazol-2-yl)propanoic acid] | 80 | 0.6
COC(=O)C1=C(C2CCc3nn(CCC(=O)O)cc3C2)NC(c2nccs2)=NC1c1ccc(F)cc1Br (single isomer, unassigned) [Compound 48d, 3-(5-(6-(2-Bromo-4-fluorophenyl)-5-(methoxycarbonyl)-2-(thiazol-2-yl)-3,6-dihydropyrimidin-4-yl)-4,5,6,7-tetrahydro-2H-indazol-2-yl)propanoic acid] | 34.3 | 0.03
CCOC(=O)C1=C(C2CCc3nn(CC(=O)O)cc3C2)NC(c2nccs2)=NC1c1ccc(F)c(F)c1Cl (single isomer, unassigned) [Compound 49c] | 25.4 | 0.11
CCOC(=O)C1=C(C2CCc3nn(CCCC(=O)O)cc3C2)NC(c2nccs2)=NC1c1ccc(F)c(F)c1Cl (single isomer, unassigned) [Compound 50c, 4-(5-(6-(2-Chloro-3,4-difluorophenyl)-5-(ethoxycarbonyl)-2-(thiazol-2-yl)-3,6-dihydropyrimidin-4-yl)-4,5,6,7-tetrahydro-2H-indazol-2-yl)butanoic acid] | 11.9 | < 0.0046
CCOC(=O)C1=C(C2CCc3nn(C(C)CC(=O)O)cc3C2)NC(c2nccs2)=NC1c1ccc(F)c(F)c1Cl (single isomer, unassigned) [Compound 51c, 3-(5-(6-(2-chloro-3,4-difluorophenyl)-5-(ethoxycarbonyl)-2-(thiazol-2-yl)-3,6-dihydropyrimidin-4-yl)-4,5,6,7-tetrahydro-2H-indazol-2-yl)butanoic acid] | 8.6 | 0.0097
CCOC(=O)C1=C(C2CCc3nn(C(C)CC(=O)O)cc3C2)NC(c2nccs2)=NC1c1ccc(F)c(F)c1Cl (single isomer, unassigned) [Compound 52d, 3-(5-(6-(2-chloro-3,4-difluorophenyl)-5-(ethoxycarbonyl)-2-(thiazol-2-yl)-3,6-dihydropyrimidin-4-yl)-4,5,6,7-tetrahydro-2H-indazol-2-yl)butanoic acid] | 10.5 | 0.0124

— US20210220356A1, “DIHYDROPYRIMIDINE DERIVATIVES AND USES THEREOF IN THE TREATMENT OF HBV INFECTION OR OF HBV-INDUCED DISEASES” (Janssen Sciences Ireland Unlimited Company, priority 2018, published 2021)
